Patent US7923442B2, “Glutathione peroxidase mimetics and uses thereof” (UTI Limited Partnership, priority 2005, dated 2011)

Legend:
[1] = Catalytic activity of GPx mimetics: reduction of hydrogen peroxide with benzyl thiol
Method: (§1) Catalytic activity of the compounds described herein can be determined via assessing the reduction of tert-butyl hydroxyperoxide and hydrogen peroxide with benzyl thiol for example as described in Example 1, herein. According to this embodiment, catalytic activity was compared by means of reaction half-life (t1/2), where the value reflects the time required to oxidize half of the thiol to its disulfide.
(§2) Diselenide 17, selenide 20 and spirodioxyselenurane 25 were prepared by literature procedures. NMR spectra were run in CDCl3 unless otherwise indicated. Chemical shifts for ^77Se and ^125Te NMR spectra are reported relative to dimethyl selenide and dimethyl telluride, respectively (δ 0.00). The spectra were recorded by using diphenyl diselenide in CDCl3 (δ 463 ppm) or selenium dioxide in D2O (δ 1302.6 ppm) for ^77Se NMR spectra, and diphenyl ditelluride in CDCl3 (δ 420.8 ppm) for ^125Te NMR spectra. Benzyl thiol was distilled prior to use and the concentrations of tert-butyl hydroperoxide and hydrogen peroxide were determined by iodometric analysis.
(§3) Glassware used in the measurement of catalytic activity (Example 9) was washed only with water followed by acetone, and was flame-dried prior to use. Contamination with traces of detergent or alkali produced abnormal kinetic results.
(§4) Catalytic activity of some of the compounds synthesized as described the foregoing Examples are described in the tables below, where the activity measured is in terms of comparability to selenoenzyme glutathione peroxidase. Reactions were performed with BnSH (0.029 M), the catalyst (0.0029 M) and either 56% TBHP (0.038 M), 38% TBHP (0.023 M) or 29% H2O2(0.040 M) in CH2Cl2-MeOH (95:5) at 18° C., except for entries 7, 8, 17 and 18, where the solvent was CH2Cl2-MeOH (4:1).

[2] = Catalytic activity of GPx mimetics: overall comparison of catalysts in words (both oxidants); settings: reduction of peroxides with BnSH; for catalytic activity compared to their selenium analogs 14 and 16: fastest reaction rates
Source text: as §1, §4
In general, hydrogen peroxide was reduced faster than tert-butyl hydroperoxide in the presence of the selenium-based catalysts.

[3] = Catalytic activity of GPx mimetics: reduction of tert-butyl hydroperoxide with benzyl thiol
Method: as §1, §2, §3, §4

Structure (SMILES) | t1/2 (h), time required to oxidize half of the thiol to its disulfide [1] | catalytic activity compared to the parent cyclic seleninate ester 14 and spirodioxyselenurane 16 [2] | t1/2 (h), time required to oxidize half of the thiol to its disulfide [3] | catalytic activity compared to their selenium analogs 14 and 16 [2] | melting point
O=[Se]1CCCO1 (stereo not drawn) [Compound 14, reference compound] | 18 h | – | – | – | –
C1CO[Se]2(C1)CCCO2 [Compound 16, reference compound] | 0.2 h | – | – | – | –
O=[Se]1OCc2ccccc21 (stereo not drawn) [Compound 19, Benzo-1,2-oxaselenolane Se-Oxide] | 18 h | inferior catalysts | 162 h | – | –
O=C1O[Se](=O)c2ccccc21 (stereo not drawn) [Compound 22, Benzo-3-oxo-1,2-Oxaselenolane Se-Oxide] | 73 h | inferior catalysts | 252 h | – | –
c1ccc2c(c1)CO[Se]21OCc2ccccc21 [Compound 24, Spirodioxyselenurane] | 5.5 h | inferior catalysts | 62 h | – | –
O=C1O[Se]2(OC(=O)c3ccccc32)c2ccccc21 [Compound 25, Spirodioxyselenurane, reference compound] | 35 h | inferior catalysts | 113 h | – | –
O=[Te]1CCCO1 [Compound 27, 1,2-Oxatellurolane Te-oxide] | – | – | – | superior catalysts | –
C1CO[Te]2(C1)CCCO2 [Compound 29, Spirodioxytellurane] | – | – | – | superior catalysts | –
COc1ccc2c(c1)CO[Se]2=O (stereo not drawn) [Compound 91, 5-metboxybenzo-1,2-oxaselenolane Se-oxide] | 28 h | – | 81 h | – | –
O=[Se]1OCc2cc(F)ccc21 (stereo not drawn) [Compound 93, 5-fluorobenzo-1,2-oxaselenolane Se-oxide] | 39 h | – | 238 h | – | 141 to 142 °C
COc1ccc2c(c1)CO[Se]21OCc2cc(OC)ccc21 [Compound 126, spirodioxyselenurane] | 3.3 h | – | 39 h | – | 171 to 173 °C
Fc1ccc2c(c1)CO[Se]21OCc2cc(F)ccc21 [Compound 127, spirodioxyselenurane] | 16 h | – | 181 h | – | 189 to 191 °C
